Experimental data from publication PMC7558282, “The Anticancer Activity for the Bumetanide-Based Analogs via Targeting the Tumor-Associated Membrane-Bound Human Carbonic Anhydrase-IX Enzyme” (Pharmaceuticals, 2020).

How the values were obtained:
[1] = test system: A-498 kidney carcinoma cells; assay: MTT cell proliferation assay, A-498; type: cell-based, human; details: Homo sapiens, A498, 48 h, ±SEM
Procedure: (§1) Cells were cultured in 96-well plate, at cell density of 1.2–1.8 × 10^4 cells/well, using Dulbecco’s Modified Eagle Medium (Invitrogen^TM, Carlsbad, CA, USA) supplemented with 10% (w/v) fetal bovine serum (Hyclone^TM, Marlborough, MA, USA), 10 ug/mL of insulin (Sigma-Aldrich^TM, St. Louis, MO, USA), and 1% (w/v) penicillin-streptomycin (Sigma-Aldrich^TM, St. Louis, MO, USA). Following 24h-incubation period under 5% CO2 at 37 °C, cells were treated with compounds’ serial concentrations (0.1 µM–100 µM) in DMSO, where the DMSO final concentration in the culture medium never exceeded 0.2% (v/v). Subsequently, the treated microplates were incubated for 48 h at 5% CO2/37 °C prior to examination under the inverted microscope and proceeding for the MTT assay. The culture medium was discarded and 100 µL of complete medium comprising 5 mg/mL MTT dye were dispensed within every well, then plates were reincubated for 2 h at 5% CO2/37 °C. […] Color intensity within each well was measured spectrophotometrically using the ROBONIK-P2000® ELISA microplate reader (Bio-Tek^TM, Winooski, VT, USA) at 450 nm while subtracting the background absorbance of multi well plates at 690 nm. The experiment was conducted in triplicates and IC50 values were estimated through linear regression between the logarithm-transformed compound concentrations and corresponding % cell viability = (mean absorbance in test wells/mean absorbance in control wells) ∗ 100, having the response variable slope (four parameters) for all samples.

[2] = test system: SCaBER bladder squamous cell carcinoma cells; assay: MTT cell proliferation assay, SCaBER; type: cell-based; details: Homo sapiens, 48 h, ±SEM
Procedure: as §1

[3] = test system: HEK-293 cells; assay: MTT assay, non-tumorigenic HEK-293; type: cell-based; details: HEK293, normal human embryonic kidney cells
Procedure: Such differential activity patterns could be explained as off-target activity mediated by the latter compounds being related to a specific cancer cell line.
Figure 3 Antiproliferative activity of compound 9c in tumorigenic A-498 cells and non-tumorigenic HEK-293 cells. The experiment was performed in triplicate and significance was represented as mean ± S.D. ** = p < 0.01; *** = p < 0.001 between indicated groups.
The colorimetric MTT Cell Proliferation® Assay Kit (Cat. №. 10009365; Cayman Chemical^TM, Ann Arbor, MI, USA) has been utilized to assess the cytotoxic impact of the investigated compounds on solid cancer cell lines. […] Color intensity within each well was measured spectrophotometrically using the ROBONIK-P2000® ELISA microplate reader (Bio-Tek^TM, Winooski, VT, USA) at 450 nm while subtracting the background absorbance of multi well plates at 690 nm. The experiment was conducted in triplicates and IC50 values were estimated through linear regression between the logarithm-transformed compound concentrations and corresponding % cell viability = (mean absorbance in test wells/mean absorbance in control wells) ∗ 100, having the response variable slope (four parameters) for all samples.

[4] = molecular target: hCA-II (Homo sapiens, UniProt P00918); assay: colorimetric CA-inhibition assay based on CA-esterase activity, hCA-II; details: hCA-II IC50, three replicate experiments; N/D = non-detected IC50 within the range of the tested concentrations
Procedure: Based on the kit manufacturer’s protocol, the candidate inhibitors were dissolved in DMSO at 10 × highest final test concentration and specific aliquots of such working dilutions were incubated with the target hCA isozyme for 10 min at room temperature prior to permit the formation of the enzyme-inhibitor complex. Triplicate experiments were performed for each candidate inhibitor concentration. Parallel wells of solvent and enzyme controls were prepared to test the solvent impact upon the activity of the target enzyme. […] Following incubation, the CA-substrate was added and changes in absorbance (at 405 nm) were monitored for 60 min at room temperature within the kinetic mode. The negative enzyme control wells (without added compounds) were arbitrarily set as 100% enzyme activity. […] Absorbance readings from background wells were subtracted from the compound assay wells in order to account for background hydrolysis activity caused by the buffer solution [44, 45].

IC50 [1]: 5.07 ± 0.11 µM
IC50 [2]: 8.8 ± 1.9 µM
IC50 [4]: 0.32 µM
Structure (SMILES): CCCCNc1cc(-c2n[nH]c(=S)n2-c2ccc(Br)cc2)cc(S(N)(=O)=O)c1Oc1ccccc1 [Compound 9c]
IC50 [3]: > 50 µM
